In brackets after ≈: the same amount, converted by molar mass. Where two headings read alike, the source gives them in different places.
Assay: Fulvestrant aqueous solubility in the presence and absence of cyclodextrins (excess drug, shaken 24 h, filtered, HPLC)
Format: physicochemical
Settings: for Quantity of Fulvestrant Diluted Run 2 / Average Concentration / Quantity of Fulvestrant Diluted Run 1: diluted sample; for solubility at 24 h: 22 °C
Procedure: The HPLC system used for the chromatographic determination of fulvestrant consisted of a Waters 600E quaternary gradient pump, a Waters 717plus WISP auto-sampler and a Waters 2487 Dual A, Absorbance detector. Separation was performed using a Phenomenex Luna C18 column (250×4.6 mm; 5 urn) (Phenomenex, Torrance, Calif.) (supplied by Separations, South Africa) and a mobile phase consisting of 50% MeCN:22.5% ddH2O :27.5% MeOH. The mobile phase was degassed and filtered prior to use. […] Sample run times were 15 minutes. The UV detector wavelength was set to 280 nm.
(§1) 1 mL of each of the following aqueous solutions was prepared containing 0; 25; 50; 75 and 100 mg/mL ACD in ddHiO. Excess fulvestrant was added to each of these solutions and the samples were shaken for 24 hours on an orbital shaker at 200 rpm and at 22° C. room temperature. Excess fulvestrant was present in all samples at all times. After 24-hours, the samples were filtered through 0.45 μm syringe tip filters, diluted according to requirements and assayed by HPLC.
as §1, with “5; 7.5; 10” for “25; 50; 75”, “15” for “100”, “BCD” for “ACD”, “ddH2O.” for “ddHiO.”
as §1, with “0;” for “0; 25;”, “100; 150; 200; 250; 300; 350” for “75”, “400” for “100”, “MBCD” for “ACD”, “ddH2O.” for “ddHiO.”
as §1, with “0;” for “0; 25;”, “100; 150; 200; 250; 300; 350” for “75”, “400” for “100”, “HPBCD” for “ACD”, “ddH2O.” for “ddHiO.”
as §1, with “0;” for “0; 25;”, “100; 150; 200; 250; 300; 350” for “75”, “400” for “100”, “SBEBCD” for “ACD”, “ddH2O.” for “ddHiO.”
as §1, with “0;” for “0; 25;”, “100; 150;” for “75”, “200” for “100”, “GCD” for “ACD”, “ddHO.” for “ddHiO.”
as §1, with “0;” for “0; 25;”, “100; 150; 200; 250; 300; 350” for “75”, “400” for “100”, “HPGCD” for “ACD”, “ddH2O.” for “ddHiO.”

C[C@]12CC[C@@H]3c4ccc(O)cc4C[C@@H](CCCCCCCCC[S+]([O-])CCCC(F)(F)C(F)(F)F)[C@H]3[C@@H]1CC[C@@H]2O (stereo partly drawn) [Fulvestrant, 7-alpha-[9-(4,4,5,5,5-pentafluoropentylsulphinyl)nonyl]estra-1,3,5-(10)-triene-3,17-beta-diol]
Quantity of Fulvestrant Diluted Run 2 (150 mg/mL HPBCD): 93.50 µg/mL
True Fulvestrant Concentration (150 mg/mL HPGCD in ddH2O, 22° C., 24 h): 0.203 mg/mL
Average Concentration (150 mg/mL HPGCD): 220.81 µg/mL
Quantity of Fulvestrant Diluted Run 1 (150 mg/mL HPGCD): 220.67 µg/mL
Quantity of Fulvestrant Diluted Run 2 (150 mg/mL HPGCD): 220.94 µg/mL
True Fulvestrant Concentration (150 mg/mL MBCD in ddH2O, 22° C., 24 h): 6.744 mg/mL
Average Concentration (150 mg/mL MBCD): 67.44 µg/mL
Quantity of Fulvestrant Diluted Run 1 (150 mg/mL MBCD): 67.40 µg/mL
Quantity of Fulvestrant Diluted Run 2 (150 mg/mL MBCD): 67.47 µg/mL
True Fulvestrant Concentration (150 mg/mL SBEBCD in ddH2O, 22° C., 24 h): 0.273 mg/mL
Average Concentration (150 mg/mL SBEBCD): 272.92 µg/mL
Quantity of Fulvestrant Diluted Run 1 (150 mg/mL SBEBCD): 273.01 µg/mL
Quantity of Fulvestrant Diluted Run 2 (150 mg/mL SBEBCD): 272.83 µg/mL
True Fulvestrant Concentration (200 mg/mL GCD in ddH2O, 22° C., 24 h): <0.010 mg/mL
Average Concentration (200 mg/mL GCD): <10.00 µg/mL
Quantity of Fulvestrant Diluted Run 1 (200 mg/mL GCD): <10.000 µg/mL
Quantity of Fulvestrant Diluted Run 2 (200 mg/mL GCD): <10.000 µg/mL
True Fulvestrant Concentration (200 mg/mL HPBCD in ddH2O, 22° C., 24 h): 1.563 mg/mL
Average Concentration (200 mg/mL HPBCD): 99.30 µg/mL
Quantity of Fulvestrant Diluted Run 1 (200 mg/mL HPBCD): 156.30 µg/mL
Quantity of Fulvestrant Diluted Run 2 (200 mg/mL HPBCD): 42.30 µg/mL
True Fulvestrant Concentration (200 mg/mL HPGCD in ddH2O, 22° C., 24 h): 0.300 mg/mL
Average Concentration (200 mg/mL HPGCD): 334.71 µg/mL
Quantity of Fulvestrant Diluted Run 1 (200 mg/mL HPGCD): 334.75 µg/mL
Quantity of Fulvestrant Diluted Run 2 (200 mg/mL HPGCD): 334.66 µg/mL
True Fulvestrant Concentration (200 mg/mL MBCD in ddH2O, 22° C., 24 h): 10.694 mg/mL
Average Concentration (200 mg/mL MBCD): 106.94 µg/mL
Quantity of Fulvestrant Diluted Run 1 (200 mg/mL MBCD): 106.87 µg/mL
Quantity of Fulvestrant Diluted Run 2 (200 mg/mL MBCD): 107.01 µg/mL
True Fulvestrant Concentration (200 mg/mL SBEBCD in ddH2O, 22° C., 24 h): 0.399 mg/mL
Average Concentration (200 mg/mL SBEBCD): 398.81 µg/mL
Quantity of Fulvestrant Diluted Run 1 (200 mg/mL SBEBCD): 398.52 µg/mL
Quantity of Fulvestrant Diluted Run 2 (200 mg/mL SBEBCD): 399.09 µg/mL
True Fulvestrant Concentration (250 mg/mL HPBCD in ddH2O, 22° C., 24 h): 2.377 mg/mL
Average Concentration (250 mg/mL HPBCD): 118.84 µg/mL
Quantity of Fulvestrant Diluted Run 1 (250 mg/mL HPBCD): 118.71 µg/mL
Quantity of Fulvestrant Diluted Run 2 (250 mg/mL HPBCD): 118.97 µg/mL
True Fulvestrant Concentration (250 mg/mL HPGCD in ddH2O, 22° C., 24 h): 0.215 mg/mL
Average Concentration (250 mg/mL HPGCD): 473.84 µg/mL
Quantity of Fulvestrant Diluted Run 1 (250 mg/mL HPGCD): 474.68 µg/mL
Quantity of Fulvestrant Diluted Run 2 (250 mg/mL HPGCD): 472.99 µg/mL
True Fulvestrant Concentration (250 mg/mL MBCD in ddH2O, 22° C., 24 h): 17.429 mg/mL
Average Concentration (250 mg/mL MBCD): 174.29 µg/mL
Quantity of Fulvestrant Diluted Run 1 (250 mg/mL MBCD): 174.30 µg/mL
Quantity of Fulvestrant Diluted Run 2 (250 mg/mL MBCD): 174.28 µg/mL
True Fulvestrant Concentration (250 mg/mL SBEBCD in ddH2O, 22° C., 24 h): 0.609 mg/mL
Average Concentration (250 mg/mL SBEBCD): 304.74 µg/mL
Quantity of Fulvestrant Diluted Run 1 (250 mg/mL SBEBCD): 304.32 µg/mL
Quantity of Fulvestrant Diluted Run 2 (250 mg/mL SBEBCD): 305.15 µg/mL
True Fulvestrant Concentration (300 mg/mL HPBCD in ddH2O, 22° C., 24 h): 3.312 mg/mL
Average Concentration (300 mg/mL HPBCD): 165.62 µg/mL
Quantity of Fulvestrant Diluted Run 1 (300 mg/mL HPBCD): 164.70 µg/mL
Quantity of Fulvestrant Diluted Run 2 (300 mg/mL HPBCD): 166.54 µg/mL
True Fulvestrant Concentration (300 mg/mL HPGCD in ddH2O, 22° C., 24 h): 0.603 mg/mL
Average Concentration (300 mg/mL HPGCD): 392.50 µg/mL
Quantity of Fulvestrant Diluted Run 1 (300 mg/mL HPGCD): 400.24 µg/mL
Quantity of Fulvestrant Diluted Run 2 (300 mg/mL HPGCD): 384.76 µg/mL
True Fulvestrant Concentration (300 mg/mL MBCD in ddH2O, 22° C., 24 h): 22.673 mg/mL
Average Concentration (300 mg/mL MBCD): 226.73 µg/mL
Quantity of Fulvestrant Diluted Run 1 (300 mg/mL MBCD): 226.52 µg/mL
Quantity of Fulvestrant Diluted Run 2 (300 mg/mL MBCD): 226.94 µg/mL
True Fulvestrant Concentration (300 mg/mL SBEBCD in ddH2O, 22° C., 24 h): 0.852 mg/mL
Average Concentration (300 mg/mL SBEBCD): 425.89 µg/mL
Quantity of Fulvestrant Diluted Run 1 (300 mg/mL SBEBCD): 425.82 µg/mL
Quantity of Fulvestrant Diluted Run 2 (300 mg/mL SBEBCD): 425.96 µg/mL
True Fulvestrant Concentration (350 mg/mL HPBCD in ddH2O, 22° C., 24 h): 4.305 mg/mL
Average Concentration (350 mg/mL HPBCD): 215.26 µg/mL
Quantity of Fulvestrant Diluted Run 1 (350 mg/mL HPBCD): 215.41 µg/mL
Quantity of Fulvestrant Diluted Run 2 (350 mg/mL HPBCD): 215.10 µg/mL
True Fulvestrant Concentration (350 mg/mL HPGCD in ddH2O, 22° C., 24 h): 0.802 mg/mL
Average Concentration (350 mg/mL HPGCD): 502.97 µg/mL
Quantity of Fulvestrant Diluted Run 1 (350 mg/mL HPGCD): 500.71 µg/mL
Quantity of Fulvestrant Diluted Run 2 (350 mg/mL HPGCD): 505.22 µg/mL
True Fulvestrant Concentration (350 mg/mL MBCD in ddH2O, 22° C., 24 h): 29.275 mg/mL
Average Concentration (350 mg/mL MBCD): 292.75 µg/mL
Quantity of Fulvestrant Diluted Run 1 (350 mg/mL MBCD): 293.21 µg/mL
Quantity of Fulvestrant Diluted Run 2 (350 mg/mL MBCD): 292.29 µg/mL
True Fulvestrant Concentration (350 mg/mL SBEBCD in ddH2O, 22° C., 24 h): 1.140 mg/mL
Average Concentration (350 mg/mL SBEBCD): 379.96 µg/mL
Quantity of Fulvestrant Diluted Run 1 (350 mg/mL SBEBCD): 382.24 µg/mL
Quantity of Fulvestrant Diluted Run 2 (350 mg/mL SBEBCD): 377.67 µg/mL
True Fulvestrant Concentration (400 mg/mL HPBCD in ddH2O, 22° C., 24 h): 5.473 mg/mL
Average Concentration (400 mg/mL HPBCD): 273.67 µg/mL
Quantity of Fulvestrant Diluted Run 1 (400 mg/mL HPBCD): 275.20 µg/mL
Quantity of Fulvestrant Diluted Run 2 (400 mg/mL HPBCD): 272.14 µg/mL
True Fulvestrant Concentration (400 mg/mL HPGCD in ddH2O, 22° C., 24 h): 1.061 mg/mL
Average Concentration (400 mg/mL HPGCD): 468.43 µg/mL
Quantity of Fulvestrant Diluted Run 1 (400 mg/mL HPGCD): 486.39 µg/mL
Quantity of Fulvestrant Diluted Run 2 (400 mg/mL HPGCD): 450.47 µg/mL
True Fulvestrant Concentration (400 mg/mL MBCD in ddH2O, 22° C., 24 h): 35.892 mg/mL
Average Concentration (400 mg/mL MBCD): 358.92 µg/mL
Quantity of Fulvestrant Diluted Run 1 (400 mg/mL MBCD): 359.13 µg/mL
Quantity of Fulvestrant Diluted Run 2 (400 mg/mL MBCD): 358.71 µg/mL
True Fulvestrant Concentration (400 mg/mL SBEBCD in ddH2O, 22° C., 24 h): 1.507 mg/mL
Average Concentration (400 mg/mL SBEBCD): 502.17 µg/mL
Quantity of Fulvestrant Diluted Run 1 (400 mg/mL SBEBCD): 503.13 µg/mL
Quantity of Fulvestrant Diluted Run 2 (400 mg/mL SBEBCD): 501.21 µg/mL
solubility at 24 h (aqueous cyclodextrin solution, aqueous with cosolvent or surfactant or cyclodextrin, thermodynamic from solid, enhancement with ACD, SBEBCD and HPGCD, read-out: fulvestrant aqueous solubilities): 1000 to 2000 µg/mL
solubility at 24 h (aqueous cyclodextrin solution, aqueous with cosolvent or surfactant or cyclodextrin, thermodynamic from solid, in 400 mg/mL HPBCD, read-out: aqueous solubility of fulvestrant): 5500 µg/mL (≈ 9.06 mM)
solubility at 24 h (aqueous cyclodextrin solution, aqueous with cosolvent or surfactant or cyclodextrin, thermodynamic from solid, in 400 mg/mL MBCD, read-out: fulvestrant aqueous solubility): 35900 µg/mL (≈ 59.2 mM)
solubility thermodynamic at 24 h (water (ddH2O) without cyclodextrin, water, thermodynamic from solid, 0 mg/mL SBEBCD in ddH2O, 22° C., 24 h, read-out: True Fulvestrant Concentration): < 10 µg/mL
solubility at 24 h (water (ddH2O), water, thermodynamic from solid, absence of cyclodextrin, read-out: aqueous solubility of fulvestrant): < 10 µg/mL

Source: patent publication US9724355B2, “Fulvestrant compositions and methods of use” (SHIMODA BIOTECH (PTY) LTD, priority 2010, dated 2017)
